The text below walks through data of doi:10.1101/571604v1 (biorxiv, 2019).

What is called pEC50 is the EC50 on a negative log10 scale, so that one unit is a factor of ten. A higher pEC50 goes with a small EC50.

pEC50: −log10 of the molar value.

The target in assay [1] is T1, FPR2 (human blood neutrophils) (Homo sapiens, UniProt P25090).
T1 sequence (P25090 1-351): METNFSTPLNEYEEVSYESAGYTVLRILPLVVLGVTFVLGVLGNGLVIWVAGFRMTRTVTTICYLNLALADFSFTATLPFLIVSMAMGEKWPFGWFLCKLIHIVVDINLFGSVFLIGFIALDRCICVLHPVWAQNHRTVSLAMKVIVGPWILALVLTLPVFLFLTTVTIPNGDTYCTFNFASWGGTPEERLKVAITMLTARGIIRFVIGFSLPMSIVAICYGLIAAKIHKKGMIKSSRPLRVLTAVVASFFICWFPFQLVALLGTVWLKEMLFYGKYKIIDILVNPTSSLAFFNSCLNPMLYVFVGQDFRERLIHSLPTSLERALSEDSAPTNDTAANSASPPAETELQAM
Kind of assay: NADPH-oxidase superoxide release, isoluminol chemiluminescence, peak response. The assay is classed as cell-based. The settings on record: agonist; naive neutrophils, 37 °C, pH 7.3.

The target of assay [2] is T2, FPR2 (PathHunter eXpress CHO-K1 FPR2 cells) (Homo sapiens, UniProt P25090).
T2 sequence (P25090 1-351): T1 sequence (P25090 1-351)
As to the kind of experiment: beta-arrestin recruitment, PathHunter enzyme fragment complementation. The assay is classed as cell-based. In general terms: Arrestin recruitment assays detect the binding of arrestin to an activated receptor.

With `Cc1cccc(-c2oc(C)nc2C(=O)Nc2cnn(Cc3nc(C(C)(F)F)co3)n2)c1` [Act-389949, N-(2-{[4-(1,1-difluoroethyl)-1,3-oxazol-2-yl]methyl}-2H-1,2,3-triazol-4-yl)-2-methyl-5-(3-methylphenyl)-1,3-oxazole-4-carboxamide], the values for the pEC50 in assay [1] and in assay [2] were around 8.00 and around 7.70, respectively.
